In the assay the test system is KRAS-mutant PDC multicell tumor spheroid viability. Nature of the assay: Anticancer human tumor 521955-158-R2-J5-PDC patient-derived pancreatic carcinoma cell line growth inhibition [KRAS2]. The conditions noted are these: for viability, T/C: stronger effect = lower value. The source says:
Multicellular complex tumor spheroid response to RAS pathway inhibitors in combination with a targeted agents in patient-derived cell lines with oncogenic KRAS variants from multiple cancer types
A high-throughput screen of multi-cell type tumor spheroids was designed to identify active combinations of targeted small molecules and KRAS pathway inhibitors. Complex spheroids include a stromal component modeled by human endothelial cells (HUVEC) and fibroblasts modeled by human mesenchymal stem cells (MSCs). The concentration ranges selected for each drug and investigational agent were based upon clinically achievable concentrations if the clinical Cmax of the agent was known.
Compounds. The drugs and investigational agents: BI-3406 (NSC825286), BAY-293 (NSC824723), batoprotafib (TNO155; NSC825523), sotorasib (AMG 510; NSC818433), MRTX1257 (NSC819558), elimusertib (BAY 1895344; NSC800525), molibresib (GSK525762; NSC774829), temuterkib (LY3214996; NSC803410), venetoclax (NSC766270), alisertib (NSC759677), olaparib (NSC753686), talazoparib (NSC767125), erdafitinib (NSC781556), ipatasertib (NSC767898), cabozantinib (NSC761068), nintedanib (NSC756659), abemaciclib (NSC768073), docetaxel (NSC628503), trametinib (NSC758246), and sapanisertib (NSC764658) were obtained from the National Cancer Institute (NCI) Developmental Therapeutics Program Chemical Repository. The FDA-approved anticancer drug set is available from the Developmental Therapeutics Program. […] The stock solutions were prepared in dimethyl sulfoxide (DMSO, Sigma-Aldrich, St. Louis, MO, cat. D2650) at 800-fold the tested concentration and stored at -70 degrees C prior to their use. All drugs and investigational agents were tested over a range starting from a high concentration at or near the clinical Cmax and decreasing in half-log increments. If the clinical Cmax for an agent had not been determined, the highest concentration tested was 10 microM.
Cell Culture. All cells were maintained in an incubator at 37 degrees C and 5% CO2 with 95% humidity. The PDC lines were cultured according to standard operating procedures established by the NCI PDMR (https://pdmr.cancer.gov/sops/default.htm). Briefly, all PDCs were thawed and cultured in Matrigel-coated flasks prepared with a working solution of 1X Ham's F-12 nutrient mix, without supplementation (Invitrogen, Waltham, MA, cat. 11765054), 100 U/mL penicillin-streptomycin (Invitrogen, cat. 15140122), and 2.5% Matrigel (Corning Inc., Corning, NY, cat. 354248) for the first three passages. All PDCs were cultured in complete DMEM/F-12 media containing advanced DMEM/F-12 (Invitrogen, cat. 12634028), 4.9% defined fetal bovine serum, heat inactivated (HyClone Laboratories Inc., Logan, UT, cat. SH30070.03HI), 389 ng/mL hydrocortisone (Sigma-Aldrich, cat. H4001), 9.7 ng/mL human EGF recombinant protein (Invitrogen, cat. PHG0313), 23.4 microg/mL adenine (Sigma-Aldrich, cat. A2786), 97.3 U/mL penicillin-streptomycin (Invitrogen, cat. 15140122), 1.9 mM L-glutamine (Invitrogen, cat. 25030081), and 9.7 microM Y-27632 dihydrochloride (Tocris Bioscience, Bristol, United Kingdom, cat. 1254). The PDCs were cultured in complete DMEM/F12 media without 9.7 microM Y-27632 dihydrochloride for at least two passages prior to the screen. The established cell line HOP-62 was cultured in RPMI 1640 medium, HEPES (Invitrogen, cat. 22400105) with 10% defined fetal bovine serum (HyClone Laboratories Inc., cat. SH30070.03) and 2 mM L-glutamine (Invitrogen, cat. 25030081). The pooled donor HUVEC were cultured in endothelial cell growth medium 2 (PromoCell, Heidelberg, Germany, cat. C-22011) and the hMSC were cultured in mesenchymal stem cell growth medium 2 (PromoCell, cat. C-28009). For all experiments, HUVEC and hMSC were used at passages </=5, while the malignant cell lines were used at passages </=15. […]

Values joined by “and” are separate entries in the source; they are usually repeats but may differ in a detail not shown here. Equal values may be shown once.
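Also: viability read after seven days of drug exposure.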

For `CC(=O)Nc1cccc(-n2c(=O)n(C3CC3)c(=O)c3c(Nc4ccc(I)cc4F)n(C)c(=O)c(C)c32)c1`, the viability, T/C is 77.7% [middle of 5 runs] (compound 0.0001 µM); 47.2% [middle of 5 runs] (compound 0.000316 µM); 36.5% [middle of 5 runs] (compound 0.001 µM); 29.1% [middle of 5 runs] (compound 0.00316 µM); 24.1% [middle of 5 runs] (compound 0.01 µM); 17.4% [middle of 4 runs] (compound 0.0316 µM). Moreover, the IC50 (curve of compound) was 0.337 nM [middle of 5 runs].
In the case of `CC(=O)OC12COC1CC(O)C1(C)C(=O)C(O)C3=C(C)C(OC(=O)C(O)C(NC(=O)OC(C)(C)C)c4ccccc4)CC(O)(C(OC(=O)c4ccccc4)C21)C3(C)C` (stereo unspecified), the viability, T/C is 22.3% [middle of 5 runs] (compound 0.01 µM); 15.3% [middle of 5 runs] (compound 0.0316 µM); 14.2% [middle of 5 runs] (compound 0.1 µM); 15.2% [middle of 5 runs] (compound 0.316 µM); 18.1% [middle of 5 runs] (compound 1 µM); 21.9% [middle of 5 runs] (compound 3.16 µM). In addition, under “curve of compound”, the IC50 was < 0.01 µM.
On to `CC(C)NCC(C(=O)N1CCN(c2ncnc3c2C(C)CC3O)CC1)c1ccc(Cl)cc1` (stereo unspecified), for which the viability, T/C runs as follows: (compound 0.0316 µM) 100% [middle of 5 runs]; (compound 0.1 µM) 102% [middle of 5 runs]; (compound 0.316 µM) 83.8% [middle of 5 runs]; (compound 1 µM) 80.8% [middle of 5 runs]; (compound 3.16 µM) 84.4% [middle of 5 runs]; (compound 10 µM) 66.7% [middle of 5 runs]. Further, the IC50 (curve of compound) is > 10 µM.
With `CC(C)n1nc(-c2ccc3oc(N)nc3c2)c2c(N)ncnc21`, the viability, T/C (compound 0.000316 µM) is 101% [middle of 5 runs]; the viability, T/C (compound 0.001 µM) was 87.6% [middle of 5 runs]; the viability, T/C (compound 0.00316 µM) is 66.9% [middle of 5 runs]; the viability, T/C (compound 0.01 µM) is 48.9% [middle of 5 runs]; the viability, T/C (compound 0.0316 µM) was 35.8% [middle of 5 runs]; the viability, T/C (compound 0.1 µM) is 25.9% [middle of 5 runs]. The IC50 (curve of compound) was 9.42 nM [middle of 5 runs].
As to `CC1(C)CCC(CN2CCN(c3ccc(C(=O)NS(=O)(=O)c4ccc(NCC5CCOCC5)c([N+](=O)[O-])c4)c(Oc4cnc5[nH]ccc5c4)c3)CC2)=C(c2ccc(Cl)cc2)C1`, the viability, T/C is, setting by setting: (compound 0.0316 µM) 99.7% [middle of 5 runs]; (compound 0.1 µM) 104% [middle of 5 runs]; (compound 0.316 µM) 105% [middle of 5 runs]; (compound 1 µM) 111% [middle of 5 runs]. In addition, for the setting “curve of compound”, the half-inhibitory concentration (IC50) is 6.08 µM [middle of 5 runs].
Consider `CC1COCCN1c1cc(-c2ccnn2C)c2ccnc(-c3ccn[nH]3)c2n1` (stereo unspecified), for which the viability, T/C is 97.7% [middle of 5 runs] (compound 0.01 µM); 12.3% [middle of 5 runs] (compound 0.1 µM); 13.6% [middle of 5 runs] (compound 0.316 µM); 21.9% [middle of 5 runs] (compound 1 µM); 25.1% [middle of 5 runs] (compound 3.16 µM). Also, the half-maximal inhibitory concentration (IC50) (curve of compound) was 34.4 nM [middle of 5 runs].
Take `CC1OCC2(CCN(c3cnc(Sc4ccnc(N)c4Cl)c(N)n3)CC2)C1N` (stereo unspecified): where the note is “compound 0.0316 µM”, the viability, T/C is 84.3% and 94% and 83.1%. Moreover, the IC50 is > 10 µM and 4.03 µM (compound alone, run of 09/02/2021); > 10 µM (curve of compound).
As to `CCN1CCN(Cc2ccc(Nc3ncc(F)c(-c4cc(F)c5nc(C)n(C(C)C)c5c4)n3)nc2)CC1`, the viability, T/C is 99% [middle of 5 runs] (compound 0.00316 µM); 98.1% [middle of 5 runs] (compound 0.01 µM); 87.7% [middle of 5 runs] (compound 0.0316 µM); 90.7% [middle of 5 runs] (compound 0.1 µM); 99.1% [middle of 5 runs] (compound 0.316 µM); 87.5% [middle of 5 runs] (compound 1 µM). Further, the IC50 (curve of compound) is > 1 µM.
As for `CCNC(=O)CC1N=C(c2ccc(Cl)cc2)c2cc(OC)ccc2-n2c(C)nnc21` (stereo unspecified), the viability, T/C runs as follows: (compound 0.0316 µM) 98.9% [middle of 5 runs]; (compound 0.1 µM) 92.1% [middle of 5 runs]; (compound 0.316 µM) 63% [middle of 5 runs]; (compound 1 µM) 45% [middle of 5 runs]; (compound 3.16 µM) 37.6% [middle of 5 runs]; (compound 10 µM) 34.2% [middle of 5 runs]. The IC50 (curve of compound) is 692 nM [middle of 5 runs].
Take `CN(C)C/C=C/C(=O)Nc1cc2c(Nc3ccc(F)c(Cl)c3)ncnc2cc1O[C@H]1CCOC1`: the viability, T/C is 105% [middle of 5 runs] (compound 0.000316 µM); 98.6% [middle of 5 runs] (compound 0.001 µM); 96.5% [middle of 5 runs] (compound 0.00316 µM); 92.4% [middle of 5 runs] (compound 0.01 µM); 87.8% [middle of 5 runs] (compound 0.0316 µM). The IC50 (curve of compound) was > 0.1 µM.
Regarding `COc1cc(Nc2ncc3c(n2)-c2ccc(Cl)cc2C(c2c(F)cccc2OC)=NC3)ccc1C(=O)O`, the viability, T/C was 50.2% [middle of 5 runs] (compound 0.0316 µM); 39.8% [middle of 5 runs] (compound 0.1 µM); 45.3% [middle of 5 runs] (compound 0.316 µM); 47.9% [middle of 5 runs] (compound 1 µM); 46.5% [middle of 5 runs] (compound 3.16 µM); 41.2% [middle of 5 runs] (compound 10 µM). Further, where the note is “curve of compound”, the half-inhibitory concentration (IC50) was < 0.0316 µM.
Consider `COc1cc(OC)cc(N(CCNC(C)C)c2ccc3ncc(-c4cnn(C)c4)nc3c2)c1`, for which the viability, T/C (compound 0.0316 µM) was 94.3% [middle of 5 runs]; the viability, T/C (compound 0.1 µM) was 99.1% [middle of 5 runs]; the viability, T/C (compound 0.316 µM) is 105% [middle of 5 runs]; the viability, T/C (compound 1 µM) is 123% [middle of 5 runs]; the viability, T/C (compound 10 µM) is 0.56% [middle of 5 runs]. The IC50 (curve of compound) is 6.06 µM [middle of 4 runs].
Turning to `Cn1nccc1Nc1nccc(-c2cc3c(s2)C(C)(C)N(CCN2CCOCC2)C3=O)n1`, the viability, T/C is, setting by setting: (compound 0.0316 µM) 91.2% [middle of 5 runs]; (compound 0.1 µM) 86.3% [middle of 5 runs]; (compound 0.316 µM) 60.6% [middle of 5 runs]; (compound 1 µM) 51% [middle of 5 runs]; (compound 3.16 µM) 32.7% [middle of 5 runs]; (compound 10 µM) 22.6% [middle of 5 runs]. Also, for the setting “curve of compound”, the IC50 is 902 nM [middle of 5 runs].
Consider `Cn1ncnc1[C@H]1c2n[nH]c(=O)c3cc(F)cc(c23)N[C@@H]1c1ccc(F)cc1`, for which the viability, T/C runs as follows: (compound 0.000316 µM) 104% [middle of 5 runs]; (compound 0.001 µM) 104% [middle of 5 runs]; (compound 0.00316 µM) 97.1% [middle of 5 runs]; (compound 0.01 µM) 90.9% [middle of 5 runs]; (compound 0.0316 µM) 90% [middle of 5 runs]; (compound 0.1 µM) 82.8% [middle of 5 runs]. Also, under “curve of compound”, the IC50 was > 0.1 µM.
For the molecule `O=C(c1cc(Cc2n[nH]c(=O)c3ccccc23)ccc1F)N1CCN(C(=O)C2CC2)CC1`, the viability, T/C was 99% [middle of 5 runs] (compound 0.0316 µM); 95.1% [middle of 5 runs] (compound 0.1 µM); 93.8% [middle of 5 runs] (compound 0.316 µM); 94.8% [middle of 5 runs] (compound 1 µM); 89.3% [middle of 5 runs] (compound 3.16 µM); 61% [middle of 5 runs] (compound 10 µM). Also, where the note is “curve of compound”, the IC50 is > 10 µM.
